“Also recorded” adds a separate entry of the source.
Test system: LPS-inflicted lung inflammation
Experiment: LPS-inflicted lung inflammation model in mice (lung morphometry)
Type: in vivo
Conditions: for interalveolar septa thickness (result in words) / alveolar lumen area (result in words): 6-week dietary course then single intranasal LPS; for interalveolar septa thickness (result in words): compared with control mice without LPS; for alveolar lumen area (result in words): compared with control mice without LPS / H-form; for Partition thickness Me (25%; 75%): 6-week dietary course followed by single intranasal LPS, median
Description: FIGS. 3-6. Groups of female (f) and male (m) mice received a 6-week course of dietary (H) AA or a 6-week course of deuterated arachidonic acid (D6-ARA, 15 mg/day) followed by single intranasal administration of LPS.
COX and LOX inhibitors can be employed to down-regulate this process, with various efficacy. In contrast, the methods of the present disclosure rely on deuteration of the three oxidation prone sites within PUFA molecules, to substantially slow down the rate limiting step of oxidation (both enzymatic and non-enzymatic) via the isotope effect (IE). Made in high yield via a catalytic process, such D-PUFAs were tested in a lipopolysaccharide (LPS)-inflicted lung inflammation model in mice, a well-known lung inflammation model. (See Example 1.)
For example, the mouse LPS model has been used as a model for human acute lung injury (ALI), as the mouse lung parenchyma is damaged by the generation and release of proteases and reactive oxygen and nitrogen species produced by activated lung macrophages and transmigrated neutrophils in the interstitial and alveolar compartments. The end results are microvascular injury and diffuse alveolar damage with intrapulmonary hemorrhage, edema, and fibrin deposition (Johnson and Ward, J. Clin. Invest., (1974), 54:349-357; Flierl et al., Med. Hypothesis Res., (2006), 3:727,738), which are also features in patients with ALI and the acute respiratory distress syndrome (ARDS) (Kabir et al., Shock, (2002), 17:300-303; Ward, Am. J. Pathol., (1996), 149:1081-1086). This LPS model recapitulates aspects of the inflammatory cascades that are associated with pulmonary inflammation associated with lung disease in humans, and so is useful as a screen for compounds that may disrupt these cascades and attenuate or abort the disease process. As discussed herein, in some embodiments, the D-PUFAs of the present disclosure are administered to break the inflammatory cascade of specific cytokines and chemokines known to induce and amplify lung inflammation. Thus, for example, one can experimentally assess the efficacy of the D-PUFAs by examining whether the levels of inflammation associated markers are reduced. Two such markers, monocyte chemoattractant protein (MCP-1), and tumor necrosis factor alpha (TNF-a), are found to be associated with early and chronic infection and inflammation in humans and are mirrored in rodent models of airway inflammation including the mouse LPS pulmonary inflammation model.
LPS treatment promotes inflammation through various mechanisms including secretion of pro-inflammatory cytokines, eicosanoids and induction of ROS. Following induction by the intranasal administration of LPS, an acute lung inflammation quickly follows. […] Such a pronounced inflammatory infiltration of the interalveolar septa contributed to their destruction and more frequent formation of emphysema foci in this group. […] (See FIGS. 3-6.)
The degree of alveolar lumen area changes in both groups of animals depended on gender.

Compound | interalveolar septa thickness (result in words) | alveolar lumen area (result in words) | alveolar lumen area (result in words) (listed as D-form) | degree of inflammatory lesion of the lungs (D-form compared to H-form, after 6-week course and LPS) | Partition thickness Me (25%; 75%) (females) [μm] | Partition thickness Me (25%; 75%) (males) [μm] | protective / therapeutic effect compared to other deuterated PUFAs (preliminary data (not shown)) | interalveolar septa thickness (result in words) (listed as AA)
[2H]C([2H])(/C=C\CCCCC)/C=C\C([2H])([2H])/C=C\C([2H])([2H])/C=C\CCCC(=O)O [D-ara, 7,7,10,10,13,13-D6-arachidonic acid] | consistent with controls | consistent with controls | decrease in alveoli lumens | lesser degree of inflammatory lesion | 3.6 | 5.55 | better therapeutic effect; also recorded: best protective effect | 
CCCCC/C=C\C/C=C\C/C=C\C/C=C\CCCC(=O)O [H-ara, arachidonic acid, reference compound] | significantly increased | increase |  |  | 9.1 |  |  | increase
